Tests used:
Aβ(1-42) [1] = molecular target: T1, Aβ(1-42) (Homo sapiens, UniProt P05067); assay: Thioflavin T fluorescence assay of Aβ aggregation; format: biochemical; details: highest drug concentrations
T1 construct: purchased AnaSpec, San Jose, Calif; host or cells: synthetic peptide
Description: Fibrillization Procedure. Purified amyloid beta (1-42) (SEQ ID NO: 2) was purchased from AnaSpec and used without further purification. Fibrillization conditions are based on those previously described by Gordon and Meredith (Gordon, D. J. and Meredith, S. C. (2003) Biochemistry 42:475-485). Briefly, peptide was dissolved in PBS to a final concentration of 100 uM. To this solution, was added either FKBP12 (to a final concentration of 1 uM) or an equivalent volume of buffer alone (100 mM NaCl, 10 mM Tris-HCl pH 7.0). Additionally, either agent (dissolved in DMF) or DMF alone was added. These mixtures were placed at room temperature for at least 4 days without disruption. Thioflavin T assay. […] The mixture was vortexed briefly and the fluorescence emission maximum measured. For the dose dependence experiment, the emission wavelength was recorded at 490 nm. […] Turbidity was measured at 30° C. with orbital shaking in half area, nonbinding surface 96-well plates (Corning) on a TECAN GENios plate reader. […] Fluorescence was measured on a SpectraMax Gemini (Molecular Devices, Sunnyvale, Calif.), using an excitation wavelength of 446 nm (±5 nm) and an emission of 490 nm (±5 nm). The data was fit to sigmoidal curves using DeltaGraph (DeltaPoint, Inc) and the IC50 for each treatment recorded. […] A linear relationship between thioflavin T fluorescence and percent aggregation was used for simplicity.

Aβ(1-42) [2] = molecular target: T1, Aβ(1-42); assay: Transmission electron microscopy of Aβ fibrils; format: biochemical; details: for size or abundance of Aβ fibrils (TEM): 1 uM drug, 1 μM FKBP where present
Description: Transmission Electron Microscopy (TEM). Electron microscopy was performed essentially as previously described (Gordon, D. J. and Meredith, S. C. (2003) Biochemistry 42:475-485). Briefly, solutions subjected to the fibrillization conditions described above were applied to Formvar coated 400-mesh glow-discharged copper grids and contrasted with 1% uranyl acetate solution. Grids were analyzed at 80 kV and a magnification of 100,000×. Transmission Electron Microscopy. TEM was conducted using 300 mesh formvar-coated copper grids and 1% uranyl acetate stain on a JEOL TEM1230 and imaged with a Gatan 967 slow-scan CCD at 80 kV. Samples were incubated for 4 days at 22° C. in PBS pH 7.2 containing 25 uM Aβ(1-42) (SEQ ID NO: 2), 1 μM FKBP and 1 uM drug, where appropriate. The protocol used to prepare Aβ can influence fibrillogenesis and the reproducibility of the assays. Therefore, it can be useful to examine Aβ aggregation under a variety of conditions. In addition to the hydroxide method used above, stock solutions of Aβ were also prepared using a trifluoroacetic acid (TFA) protocol (Crystal, et al., J. Neurochem. 86, 1359-1368 (2003). TEM on samples originated from these stock solutions yielded similar results, although the typical size of the fibrils was considerably shorter.

FKBP12 = molecular target: T2, FKBP12 (Homo sapiens, UniProt P62942); assay: Surface plasmon resonance, binding to immobilized FKBP12; details: SPR
T2 construct: made in house
Description: (§1) Surface Plasmon Resonance. Amide coupling was used to generate a carboxymethyldextran (CMS; BIAcore, Uppsala, Sweden) sensor chip bearing a mockimmobilized surface on flow chamber 1 (Fc1), 950 RU of Aβ(1-40) (SEQ ID NO: 3) (AnaSpec, San Jose, Calif.) on Fc2, and 2800 RU of bacterially-expressed recombinant FKBP12 on Fc3. The regeneration conditions were as follows: for removing analyte from Aβ surfaces (4 M guanidine HCl, 10 mM Tris buffer pH 8.0) and for removing analyte from the FKBP surface (750 mM NaCl, 250 mM NaOH). To calculate KD1 and KD2 (±SEM) for Aβ binding (in part C), the control signal was subtracted and data was fit according to the method of Cairo et al. (Biochemistry 41, 8620-8629 (2002). In each case, eight concentrations of analyte distributed around the KD were injected in duplicate in the running buffer (HBS-EP; BIAcore). Congo red is not uniquely specific for Aβ and, consistent with this, it also binds FKBP, but at a KD 20-fold higher than SLF-CR.

Rat hippocampal neurons [3] = assay: MTT cell viability assay, neurons exposed to pre-treated Aβ(1-42); format: cell-based; details: high molar concentrations of Aβ; SLF-Benz-CR at 100 nM
Description: Cell Viability Assay. Rat hippocampal (E19.5 and P0) neurons were prepared as previously described (Graef, et al., Nature 401, 703-708 (1999). Fresh Aβ(1-42) (100 uM) (SEQ ID NO: 2) was prepared under basic conditions and incubated with inhibitors for two days at 22° C. in PBS pH 7.2 and then diluted 1:4 with culture media and applied to neurons. MTT assays were conducted as per manufacturer's specifications after two additional days of incubation at 37° C. and 5% CO2. The inhibitor concentrations are the in vitro incubation values.

Aβ(1-42) [4] = molecular target: T1, Aβ(1-42); assay: Light scattering (turbidity) of Aβ(1-42) fibrillogenesis; format: biochemical
Description: Light Scattering. Fresh A13(1-42) (Anaspec, San Jose, Calif.) (SEQ ID NO: 2) was prepared by resuspending the peptide in […] pH 9.5 to 10, sonicating for 5 minutes, and passing the resulting solutions through a 10 kDa filter (YM-10; Millipore, Bedford, Mass.) (31). Stock solutions (100 μM in 2 mM NaOH) were stored at −80° C. and diluted to 25 uM with PBS pH 7.2 to initiate fibrillogenesis. Identical methods were used to prepare the Aβ(1-42) (SEQ ID NO: 2) solutions utilized for TEM, AFM, MTT, Tunel and thioflavin T experiments. Turbidity was measured at 30° C. with orbital shaking in half area, nonbinding surface 96-well plates (Corning) on a TECAN GENios plate reader. The total volume was 50 uL and the concentration of FKBP was 1 uM. The results are representative of two independent experiments each performed in triplicate.

Rat hippocampal neurons [5] = assay: Tunel staining / immunofluorescence microscopy of neurons exposed to Aβ; format: cell-based; details: for Tunel positive cells / Aβ toxicity: Aβ 25 uM, drug and FKBP 1 uM, incubated with Aβ prior to addition
Description: Immunofluorescence Microscopy. Rat hippocampal neurons (P0) were cultured 10 days on Matrigel-coated glass coverslips (Deckgläser, Germany) in 24-well plates (Corning) at 37° C. and 5% CO2. Aβ solutions were prepared and applied as above. The final concentration of Aβ was 25 uM and drug and FKBP were present at 1 uM. Following a two-day incubation, cells were prepared for microscopy as described (R. Kayed, et al., Science 300, 486-489 (2003).

Aβ(1-40) = molecular target: T3, Aβ(1-40) (Homo sapiens, UniProt P05067); assay: Surface plasmon resonance, binding to immobilized Aβ(1-40)
T3 construct: purchased AnaSpec, San Jose, Calif; host or cells: synthetic peptide
Description: as §1

Aβ(1-42) [6] = assay: Atomic force microscopy of Aβ aggregates; format: biochemical; details: samples containing Aβ(1-42) and FKBP
Description: Atomic Force Microscopy. Samples for AFM were prepared as for TEM, above, applied to a clean silicon surface, washed twice with dH2O, dried, and imaged at a scan rate of 1 Hz using a silicon probe (TESP) on an AFM Nanoscope Dimension 3000 (Digital Instruments) in Tapping Mode (C. Goldsbury, et al, J. Mol. Biol. 285, 33-39 (1999). The dimensions of the globular aggregates in the samples treated with SLF-CR/FKBP were approximated using NIH Image.

T2 sequence (P62942 whole entry): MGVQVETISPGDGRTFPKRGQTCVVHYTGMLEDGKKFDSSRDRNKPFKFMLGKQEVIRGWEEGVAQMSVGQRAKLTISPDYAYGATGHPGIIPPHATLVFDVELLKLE
T1 sequence (P05067 672-713): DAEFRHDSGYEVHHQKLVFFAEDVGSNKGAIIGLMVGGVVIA
T3 sequence (P05067 672-711): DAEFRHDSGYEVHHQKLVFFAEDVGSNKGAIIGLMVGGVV

Nc1c(/N=N/c2ccc(-c3ccc(/N=N/c4cc(S(=O)(=O)O)c5ccccc5c4N)cc3)cc2)cc(S(=O)(=O)O)c2ccccc12 [CR, Congo red, reference compound]
thioflavin T fluorescence (Aβ(1-42) [1]): failed to fully block thioflavin T fluorescence | size or abundance of Aβ fibrils (TEM) (Aβ(1-42) [2]): ineffective | KD for FKBP, fold higher than SLF-CR (FKBP12): 20 fold | rescue of neurons (Rat hippocampal neurons [3]): unable to rescue | effect on Aβ aggregation / turbidity (Aβ(1-42) [4]): modest inhibitor of turbidity | Tunel positive cells / Aβ toxicity (Rat hippocampal neurons [5]): failed to substantially reduce the number of Tunel positive cells

CCC(C)(C)C(=O)C(=O)N1CCCCC1C(=O)OC(CCc1ccc(OC)c(OC)c1)c1cccc(OCC(=O)Nc2c(N=Nc3ccc(-c4ccc(N=Nc5cc(S(=O)(=O)O)c6ccccc6c5N)cc4)cc3)cc(S(=O)(=O)O)c3ccccc23)c1 (stereo not drawn) [SLF-CR]
affinity for Aβ (Aβ(1-40); immobilized Aβ(1-40), SPR): not significantly different from that of CR | SPR response on immobilized amyloid (Aβ(1-40); ternary complex test, compound alone or pre-incubated with FKBP): ~140 RUs | recruitment of FKBP to Aβ by electron microscopy (Aβ(1-42) [2]): confirmed | size or abundance of Aβ fibrils (TEM) (Aβ(1-42) [2]): ineffective | fibril formation (AFM) (Aβ(1-42) [6]): failed to form fibrils | binding to immobilized FKBP (FKBP12): comparable affinity | Tunel positive cells / Aβ toxicity (Rat hippocampal neurons [5]): failed to substantially reduce the number of Tunel positive cells

CCC(C)(C)C(=O)C(=O)N1CCCC[C@H]1C(=O)O[C@H](CCc1ccc(OC)c(OC)c1)c1cccc(OCC(=O)O)c1 [SLF]
binding to immobilized FKBP (FKBP12): comparable affinity

CC[C@@]1(O)C(=O)OCc2c1cc1n(c2=O)Cc2cc3ccccc3nc2-1 [camptothecin, reference compound]
remaining cells positive for Tunel (Rat hippocampal neurons [5]; after two days): 36%

FKBP: bacterially-expressed recombinant FKBP12, FK506-binding protein, prolyl isomerase
size or abundance of Aβ fibrils (TEM) (Aβ(1-42) [2]): does not influence the formation or architecture of Aβ fibrils | effect on Aβ aggregation / turbidity (Aβ(1-42) [4]): did not interfere with Aβ aggregation | Tunel positive cells / Aβ toxicity (Rat hippocampal neurons [5]): failed to substantially reduce the number of Tunel positive cells

Reference: patent US7923230B2, “Neurodegenerative protein aggregation inhibition methods and compounds” (The Board of Trustees of the Leland Stanford Junior …, priority 2003, dated 2011)
